Target: T1, Human glucokinase (Homo sapiens, UniProt P35557)
T1 sequence (P35557 6-464 isoform P35557-3 limits assumed): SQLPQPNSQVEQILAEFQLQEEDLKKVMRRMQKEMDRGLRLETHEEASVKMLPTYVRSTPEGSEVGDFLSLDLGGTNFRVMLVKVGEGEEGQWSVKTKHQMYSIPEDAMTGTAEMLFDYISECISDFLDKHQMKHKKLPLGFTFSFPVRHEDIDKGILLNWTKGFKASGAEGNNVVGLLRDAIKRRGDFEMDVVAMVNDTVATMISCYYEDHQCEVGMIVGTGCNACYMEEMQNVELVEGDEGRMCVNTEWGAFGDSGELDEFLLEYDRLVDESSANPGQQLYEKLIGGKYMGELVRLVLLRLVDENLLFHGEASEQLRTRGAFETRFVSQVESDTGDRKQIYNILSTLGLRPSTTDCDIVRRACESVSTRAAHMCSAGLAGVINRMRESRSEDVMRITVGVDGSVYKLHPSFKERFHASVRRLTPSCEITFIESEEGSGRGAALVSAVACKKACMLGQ
Conditions: 5 mM glucose; for EC150: concentration of test compound which increases the enzymatic activity by 50%, 1 mM ATP, 25° C., pH 7; for Fold induction: maximum fold stimulation: highest change in extinction in the range 0.1-100 μM relative to change without test substance

| EC150 | Fold induction | SMILES |
| --- | --- | --- |
| 0.2 µM | 4.8 | COc1ccc2nc(NC(=O)/C(=C/C3CCC(=O)CC3)c3ccc4c(c3)Nc3ccccc3S4(=O)=O)sc2n1 [Example 4, (E)-2-(5,5-dioxo-5,10-dihydrophenothiazin-2-yl)-N-(5-methoxythiazolo[5,4-b]pyridin-2-yl)-3-(4-oxocyclohexyl)acrylamide] |
| 1.70 µM | 3.2 | CN1c2ccccc2S(=O)(=O)c2ccc(/C(=C\C3CCCC3)C(=O)Nc3ccn(C)n3)cc21 [Example 1, (E)-3-cyclopentyl-2-(10-methyl-5,5-dioxo-5,10-dihydrophenothiazin-2-yl)-N-(1-methyl-1H-pyrazol-3-yl)acrylamide] |
